Experimental data published in patent US20220274983A1, “JAK KINASE INHIBITOR AND USE THEREOF” (JIANGSU CAREPHAR PHARMACEUTICAL CO., LTD., priority 2019, published 2022).
One block for each compound: values may come before it.

Tests used:
[1] = tested on: THP1 cells; experiment: Proliferation inhibition based on THP1 cells (IL-4 stimulation, CTG); assay type: cell-based; conditions: Homo sapiens, THP-1, read-out: IC50 (uM), proliferation inhibitory activity on THP1 cells
Protocol: 1. Cell plating: cultured cells were collected and counted for viable cells with Vi-Cell XR cell counter. The cell suspension was adjusted to an appropriate concentration with the medium and then added to a 96-well cell culture plate. 80 μL of the cell suspension was added to each well of the 96-well cell culture plate. The cell plating density depended on the growth rate of the cells. The cells were cultured in corresponding incubators.
2. Drug treatment and IL-4 stimulation: firstly, a series of test compound concentration (work solution-1) was prepared using DMSO with 3× gradient dilution, and then it was subjected to fold dilution with RPMI1640+10% FBS to obtain a work solution-2; Cisplatin's work solution-2 was prepared with RPMI1640+10% FBS, and then 1-10 μL solution taken from the work solution-2 was added to the prepared cell wells containing medium. The cells were cultured in the corresponding incubators. After incubation, 1-10 μL of IL-4 medium was added to each well and continued to culture. An appropriate CTG solution was added to each well.
Cell Survial Rate Calculation
T is the luminescence reading of a drug treatment group, and C is the average luminescence reading of a solvent control group.

[2] = tested on: Salmonella TA98, TA100, TA1535, TA1537 and Escherichia coli; experiment: Reverse mutation test (Ames test); parameters: species or system Salmonella typhimurium; conditions: non-metabolic activation conditions and activation conditions (-S9/+S9)
Protocol: Salmonella TA98, TA100, TA1535, TA1537 and Escherichia coli were used as test strains (strain source: Molecular Toxicology, Inc.). Ames test was performed under non-metabolic activation conditions and activation conditions to investigate whether the compounds according to the present invention have gene mutation inducing properties.
The cryopreserved strains were resuscitated, inoculated into nutrient broth medium and cultured in a 37° C. constant temperature shaker at 100 to 120 rpm for 11 h. The bottom agar medium (containing an appropriate amount of agar, V-B buffer, 20% glucose solution, 20% magnesium sulfate solution) was poured into a dish to cool for later use. […] The cultured plate was removed, counted and compared with the DMSO group for evaluation. If the average number of reverted colonies is twice or more than the number of reverted colonies in the negative control group (which can be regarded as spontaneous reverted number) (TA1535: 3 times or more) and there is a dose-effect relationship, the result is positive, and the test sample can be determined to be a mutagenic agent. […]

[3] = Body weight of CIA rats
Protocol: Lewis rats (female, 10-12 weeks old) were obtained from Beijing Vital River Laboratory Animal Technology Co., Ltd. The rats were on a light and dark alternation for 12 h, and the environment was kept at a temperature of 23±2° C. and a humidity of 40-70%.
Type II collagen solution (2 mg/mL) was prepared with 0.05 M acetic acid solution to allow to be fully dissolved, and placed overnight in the dark at 4° C. During the test, 2 mg/mL type II collagen (C II) solution and 4 mg/mL complete Freund's adjuvant (CFA) solution were mixed in equal volumes under ice bath conditions to fully emulsify. On day 0, an emulsion prepared by mixing equal volumes of C II (2 mg/mL) and CFA (4 mg/mL) was injected intracutaneously into the base of the tail of experimental rats for primary immunization, and on day 7, secondary booster immunization was performed.
The therapeutic effect of the test compound was tested in a rat CIA model. The rats were randomly divided into groups with 8 animals in each group. All animals were immunized on day 0 and boosted on day 7.
Therefore, the differences in body weight and foot volume after the onset of arthritis compared with the negative group, respectively, can be used to evaluate the therapeutic effect in the rat model. The experimental data were expressed as Mean±SEM; the data between the two groups was tested by unpaired t-test and p<0.05 was considered as a significant difference.

[4] = tested on: main human CYP molecular species (CYP1A2, 2B6, 2C8, 2C9, 2C19, 2D6 and 3A4); experiment: CYP inhibition test in mixed human liver microsomes; assay type: in vitro ADME
Protocol: Commercially available mixed human liver microsomes were used for the typical substrate metabolism reaction of the main human CYP molecular species (CYP1A2, 2B6, 2C8, 2C9, 2C19, 2D6 and 3A4). The reaction conditions were as follows: substrate, CYP1A2: 30 μM of phenacetin; CYP2C9: diclofenac 10 μM; CYP2C19: 35 μM of S-methphenytoin; CYP3A4: midazolam 5 μM, testosterone 80 μM; CYP2D6: bufuralol, 10 μM; CYP2C8: 10 μM of paclitaxel; and CYP2B6: bupropion 70 μM; reaction time, CYP1A2, 2C9, 2D6, 2C8, 2B6: 10 min; CYP2C19: 45 min; and CYP3A4: 5 min. Reaction temperature, 37° C. Inhibitor (positive control), CYP1A2: α-naphthoflavone; CYP2C9: sulfaphenazole; CYP2C19: omeprazole; CYP3A4: ketoconazole; CYP2D6: quinidine; CYP2C8: nicardipine; and CYP2B6: clopidogrel.
A series of dilutions for the test compound and the positive control were prepared in a 96-well plate, and 8 μL of 10 mM test compound was transferred to 12 μL of ACN. 1:3 serial dilution was performed in a DMSO:ACN mixture (v/v: 40:60). HLM was added to assay wells, and then the test compound or a reference inhibitor solution diluted with serum was added to the designated wells on ice. After the 96-well plate and NADPH solution was pre-incubated at 37° C. for 5 min, 15 μL of the pre-warmed 8 mM NADPH solution was added to the assay plate to start the reaction. […]

IC50 [1]: < 5 µM
Structure (SMILES): O=C(Nc1nc2cccc(-c3ccc(CN4CCS(=O)(=O)CC4)s3)n2n1)C1CC1 [EXP-1]

Structure (SMILES): O=C(Nc1cn2c(-c3ccc(CN4CCS(=O)(=O)CC4)s3)cccc2n1)[C@H]1C[C@@H]1F (relative stereo) [EXP-3, trans-N-[5-[5-[(1,1-dioxo-1,4-thiazin-4-yl)methyl]-2-thiophene]imidazo[1,2-a]pyridin-2-yl]-2-fluoro-cyclopropylcarboxamide]
Ames test result [2]: negative
IC50 [1]: < 5 µM
Body weight (g)/Day ([3]; 2 mg/kg oral gavage once daily for 2 w, day 0): 172.3 ± 1.9 g
Body weight (g)/Day ([3]; 2 mg/kg oral gavage once daily for 2 w, day 8): 172.6 ± 0.7 g
Body weight (g)/Day ([3]; 2 mg/kg oral gavage once daily for 2 w, day 11): 172.3 ± 1.8 g
Body weight (g)/Day ([3]; 2 mg/kg oral gavage once daily for 2 w, day 14): 170.3 ± 1 g
Body weight (g)/Day ([3]; 2 mg/kg oral gavage once daily for 2 w, day 17): 169.1 ± 1.2 g
Body weight (g)/Day ([3]; 2 mg/kg oral gavage once daily for 2 w, day 21): 164.9 ± 1.8 g
Body weight (g)/Day ([3]; 2 mg/kg oral gavage once daily for 2 w, day 24): 166.4 ± 2.6 g
Body weight (g)/Day ([3]; 2 mg/kg oral gavage once daily for 2 w, day 28): 166.9 ± 2.7 g
Body weight (g)/Day ([3]; 3 mg/kg oral gavage once daily for 2 w, day 0): 174.5 ± 1.3 g
Body weight (g)/Day ([3]; 3 mg/kg oral gavage once daily for 2 w, day 8): 172.4 ± 2.7 g
Body weight (g)/Day ([3]; 3 mg/kg oral gavage once daily for 2 w, day 11): 170.8 ± 3.8 g
Body weight (g)/Day ([3]; 3 mg/kg oral gavage once daily for 2 w, day 14): 171.6 ± 2.9 g
Body weight (g)/Day ([3]; 3 mg/kg oral gavage once daily for 2 w, day 17): 170.1 ± 2.7 g
Body weight (g)/Day ([3]; 3 mg/kg oral gavage once daily for 2 w, day 21): 166.8 ± 1.8 g
Body weight (g)/Day ([3]; 3 mg/kg oral gavage once daily for 2 w, day 24): 165 ± 1.8 g
Body weight (g)/Day ([3]; 3 mg/kg oral gavage once daily for 2 w, day 28): 169.3 ± 2 g
Body weight (g)/Day ([3]; 5 mg/kg oral gavage once daily for 2 w, day 0): 171.8 ± 2.3 g
Body weight (g)/Day ([3]; 5 mg/kg oral gavage once daily for 2 w, day 8): 171.1 ± 3.1 g
Body weight (g)/Day ([3]; 5 mg/kg oral gavage once daily for 2 w, day 11): 170.9 ± 4.5 g
Body weight (g)/Day ([3]; 5 mg/kg oral gavage once daily for 2 w, day 14): 171.4 ± 2.4 g
Body weight (g)/Day ([3]; 5 mg/kg oral gavage once daily for 2 w, day 17): 172.8 ± 2.2 g
Body weight (g)/Day ([3]; 5 mg/kg oral gavage once daily for 2 w, day 21): 166.5 ± 1.9 g
Body weight (g)/Day ([3]; 5 mg/kg oral gavage once daily for 2 w, day 24): 165.3 ± 1.7 g
Body weight (g)/Day ([3]; 5 mg/kg oral gavage once daily for 2 w, day 28): 169.1 ± 2.1 g
body weight course, in words ([3]; 10 mg/kg): increased slightly on days 11-17, but then fell back
Body weight (g)/Day ([3]; 10 mg/kg oral gavage once daily for 2 w, day 0): 173.9 ± 1.8 g
Body weight (g)/Day ([3]; 10 mg/kg oral gavage once daily for 2 w, day 8): 175.3 ± 2.1 g
Body weight (g)/Day ([3]; 10 mg/kg oral gavage once daily for 2 w, day 11): 175.9 ± 2.8 g
Body weight (g)/Day ([3]; 10 mg/kg oral gavage once daily for 2 w, day 14): 175.3 ± 2.2 g
Body weight (g)/Day ([3]; 10 mg/kg oral gavage once daily for 2 w, day 17): 176.4 ± 3.3 g
Body weight (g)/Day ([3]; 10 mg/kg oral gavage once daily for 2 w, day 21): 171.8 ± 2.9 g
Body weight (g)/Day ([3]; 10 mg/kg oral gavage once daily for 2 w, day 24): 166.3 ± 2.9 g
Body weight (g)/Day ([3]; 10 mg/kg oral gavage once daily for 2 w, day 28): 170.4 ± 3.1 g
CYP inhibition [4]: no inhibitory effect
